Laboratory results published in patent publication US12611392B2, “Mitochondria-targeting antioxidants” (GIVAUDAN SA, priority 2019, dated 2026).
Like-named read-outs stand apart in the source and are kept apart here.

Experiments:
[1] = test system: isolated adult cardiomyocytes; details: male, Wistar, rat, 2 μM
Protocol: (§1) Ventricular cardiomyocytes were isolated from 200-250 g male adult Wistar rats as previously described (Cazorla et al. Transmural stretch-dependent regulation of contractile properties in rat heart and its alteration after myocardial infarction. FASEB J. 2005, 19, 88-90). The rats were anesthetized by i.p. injection of pentobarbital sodium (100 mg/kg) with heparin (100 U). The heart was rapidly excised, rinsed in ice-cold Hanks-HEPES buffer (in mM: NaCl 117, KCl 5.7. NaHCO3 4.4, KH2PO4 1.5. MgCl2 1.7, HEPES 21, glucose 11.7, taurine 20. pH at 7.15) mounted on a Langendort perfusion system and perfused (3 mi/min, at 37° C.) first with a Hanks-HEPES buffer for 5 min to be cleared from blood, then with a buffer supplemented with 1.2 mg/mL collagenase type 4 (Worthington, Lakewood, N.J., USA) for 13-18 min. Small pieces of left ventricle were dissected and mechanically dissociated. […] Experiments were performed in Tyrode solution with 1.8 mM Ca^2+.

[2] = Partition between octan-1-ol and aqueous solution at pH 7.0 (log P / log D); details: for share in the aqueous phase: octan-1-ol / water; for partition in octan-1-ol: octan-1-ol / water pH 7.0
Protocol: In a 10-mL glass tube, two milligrams of sinapine, sinapic acid or MitoTEMPO were added by 4 mL of a 75 mM KH2PO4 buffer solution (aqueous phase), and 4 mL of octan-1-ol. The mixture was then vortexed for 1 hour at room temperature and left to equilibrate for 30 min for sinapic acid and sinapine, and overnight for MitoTEMPO. Both phases were collected with a Pasteur pipette and extemporaneously analyzed by LC-MS using the procedure described below in section 2.7.
The partition coefficient of sinapine, sinapic acid and MitoTEMPO (a commercially-available mitonchondria-targeting superoxide dismutase (SOD) mimetic) between two immiscible liquid phases (octan-1-ol and an aqueous solution at pH 7.0) was measured.

[3] = test system: ROS production in cardiac tissue; test: ROS production by dihydroethidium (DHE) staining of cardiac tissue after ischemia-reperfusion; parameters: species or system rat; details: 10 min after IR; for reduction of DHE fluorescence compared to control hearts: MitoT 0.1 μM, sinapine 60 μM
Protocol: LV samples were embedded in Optimal Cutting Temperature (OCT from Tissue-Tek) and flash-frozen in liquid nitrogen. Frozen sections were covered with 10 μM DHE and incubated in alight-protected humidified chamber at 37° C. for 5 min. Images were obtained with a fluorescence microscope (Olympus BX60, Excitation: 488 nm; emission: 610 nm) at the Imaging facility 3A INRA/University of Avignon. SOD-mimetic TEMPOL (10 mM, Santa Cruz Biotechnology) was used as a negative control to confirm that the signals resulted from ROS production.

[4] = Plasmatic and tissular levels after oral administration of sinapine; type: in vivo, rat; details: oral sinapine 200 mg/kg; for level in cytosolic and mitochondrial fractions of the heart: 120 min post-gavage; for plasmatic level: 10, 30, 60, 120 min
Protocol: To evaluate plasmatic and tissular bioavailability of sinapine, rats received 200 mg/kg of sinapine by oral gavage. […] Sinapine and sinapic acid were then quantified in plasma using the following procedure: plasma (50 μL) is mixed with internal standard solution (50 μL in methanol at 10 ng/mL) and mix on a vortex for 1 minute. The solution is then centrifuge for 3 minutes at 12000 rpm, and the supernatant injected into HPLC/MS for quantification. At the end of the procedure the animals were sacrificed and hearts quickly removed. The right ventricle cleaned and LV samples frozen in liquid nitrogen. LV tissue was homogenized in 2 mL of mitochondria isolation buffer (pH 7.2; in mM: 300 saccharose, 5 TES. 0.2 EGTA), using a Polytron (Ultra Turrax T25, IKA Labortechnik). The homogenate was centrifugated at 1,000 g for 10 min at 4° C. To separate cytosolic fraction from the mitochondrial one, the supernatant was centrifugated at 12,000 g for 15 min to 4° C., then collected (cytosolic fraction), while the pellet was collected for mitochondria fraction. To optimize the release of mitochondria materials, the pellet was homogenized in 2% Triton-X lysis buffer during 10 min on ice. To remove Triton-X, mitochondrial fraction was washed, then centrifuged (12,000 g for 15 min at 4° C.) and the pellet was resuspended in mitochondria isolation buffer. Cytosolic and mitochondria fraction obtained were quickly frozen in liquid nitrogen until HPLC measurement. To do so, mitochondria was extracted with the same procedure as for plasma procedure. Cytosol (50 μL) was pipetted into 10 mL volumetric flask, spiked successively with internal standard solution (200 μL at 250 ng/mL in methanol) and 5 mL of methanol-water (50/50 v:v). The flask was ultrasonicated for 5 min, and once cooled down, completed to 10 mL with methanol-water (50/50 v:v). Both the mitochondrial and the cytosolic fractions were analyzed with the LC-MS/MS procedure described above.
After 120 min post-gavage, the heart was removed, rinsed and quickly frozen in liquid nitrogen.

[5] = Oxygen radical absorbance capacity (ORAC) assay; details: aqueous solution; n=4
From the text: (§2) The result of this operation gave the net area under the curve (AUC) which was then plotted on a graph as a function of the concentration.

cardiomyocytes = test: Cytosol/mitochondria partitioning in cardiomyocytes by LC-MS/MS
Protocol: as §1
Antioxidants were also quantified in cardiomyocytes using LC-MS/MS. Cardiomyocytes (100,000 cells/mL) were incubated in Tyrode for 1 or 2 h with different concentrations of sinapine (2, 20, and 60 μM) or sinapic acid (Sigma Aldrich, 2, 20, and 60 μM). Extracellular, cytosolic and mitochondrial fractions were obtained and frozen in liquid nitrogen until HPLC measurement. After incubation, cells were sedimented and the supernatant collected for the extracellular fraction. The pellet of cells was rinsed twice in Tyrode. Cells were incubated with PBS containing digitonine (5 mg/mL) for 10 min on ice. Cells were centrifugated at 10,000 g for 20 min at 4° C., and the supernatant consisting in the cytosolic fraction was collected. The mitochondrial fraction was collected after rinsing five times the pellets in PBS to avoid contamination of the cytosolic fraction.
These different fractions were then analyzed using an Agilent Poroshell EC-C18 120, 2.7 microns, 2.1×150 mm analytical column on an Agilent 1290 Infinity II series pump. Injection volume was 1 μL. HPLC flow rate was 0.3 mL/min with the following mobile phases: water with 0.1% formic acid (A) and acetonitrile with 0.1% formic acid (B). The gradient was as follows: 0.0-3.0 min 0-30% B, 3.0-7.0 min 30-60% B, then a stabilization step of 4 min at the initial condition. Autosampler tray temperature was set to 10° C. and column temperature was set to 25° C. Detection was performed with an Agilent 6420 triple quadrupole in positive ionization mode with ESI source, gas temperature 325° C., gas flow 9 L/min, nebulizer 35 psi, and capillary voltage 3500 V. Mass spectrometer was working in MRM mode acquisition following the specific transition for Isoproturon-d3 (internal standard 210.2→75.0), Sinapine 310.2→251.1 (qualifier 175.0 and 91.0) and Sinapic acid 225.1→207.0 (qualifier 91.0 and 65.0).
To further evaluate if a positively charged moiety (such as choline) can endowed an antioxidant devoid of any lipid affinity with the ability to accumulate in mitochondria, we incubated sinapine and sinapic acid (lacking the choline group, i.e. negative control) in intact cardiomyocytes at three concentrations (2, 20, and 60 μM) for 1 or 2 h. Then, the mitochondrial fraction was separated from the cytosolic one using differential centrifugation. The levels of sinapine and sinapic acid were measured in each subcellular fraction using LC-MS/MS.

[6] = test system: ROS production in isolated adult rat cardiomyocytes; test: H2O2 and antimycin A-induced oxidative stress in cardiomyocytes (H2DCF-DA and DHR123 probes); type: cell-based; details: for effect on H2O2-induced increase in H2DCF-DA fluorescence (cytosolic ROS): 0.1 mM H2O2, 1 h pre-incubation; for effect on H2O2-induced increase in H2DCF-DA fluorescence (cytosolic ROS) / effect of pre-incubation on basal H2DCF-DA and DHR123 fluorescence: sinapic acid 60 μM; for effect of pre-incubation on basal H2DCF-DA and DHR123 fluorescence: control (basal) cells, no stress, sinapine 6 or 60 μM, 1 h
Protocol: Cardiomyocytes (30,000 cell/mL) were incubated with sinapine or sinapic acid for 1 h. Thirty minutes before the end, a fluorogenic probe was added. We used dihydrorhodamine 123 (DHR123) to probe mitochondrial H2O2 and peroxynitrites (Invitrogen Molecular probes Fischer scientific, D23806, Ex/Em: 508/529 nm, concentration=5 μM) and 2′,7′-dichlorodihydrofluorescein diacetate (H2DCF-DA) to probe cytosolic H2O2(Invitrogen Molecular probes Fischer scientific, D399 Ex/Em: 492/517 nm, concentration=5 μM). Cells were rinsed with a Tyrode solution and distributed in microplates for the various conditions. Some cells were stimulated with 0.1 mM H2O2(Sigma Aldrich) or with a 10 μM complex III blocker, antimycin A (AA, Sigma Aldrich) to force the cell to produce mitochondrial ROS. The microplate was immediately transferred to the microplate reader Tecan Infinite M200Pro. Fluorescence was measured at the different wavelengths every 5 min for 30 min.
Two different ROS sensitive fluorogenic probes were used, H2DCF-DA and DHR123, which are specific of cytosolic and mitochondrial ROS production, respectively (Wei et al. Nitric oxide induces oxidative stress and apoptosis in neuronal cells. Biochim. Biophys. Acta-Mol. Cell Res. 2000, 1498, 72-79; Rego et al. Influence of the antioxidants vitamin E and idebenone on retinal cell injury mediated by chemical ischemia, hypoglycemia, or oxidative stress. Free Rad Biol. Med. 1999, 26, 1405-1417; Mark et al. Basic FGF attenuates amyloid β-peptide-induced oxidative stress, mitochondrial dysfunction, and impairment of Na+/K+-ATPase activity in hippocampal neurons. Brain Res. 1997, 756, 205-214).
Myocytes loaded with one of the probes were distributed in microplate wells. ROS production was determined by following the increase of fluorescence for […]. Fluorescence was measured every 5 min and was normalized by the baseline fluorescence (T0). Some cells were incubated with either sinapine (6 or 60 μM) or sinapic acid (60 μM) for 1 h prior measurement. After the incubations, cells were washed out. Some cells were stimulated with 0.1 mM H2O2 or with a mitochondrial electron transport chain complex III blocker, 10 μM antimycin A (AA) to force mitochondria to produce mitochondrial ROS (Quinlan et al. The mechanism of superoxide production by the antimycin-inhibited mitochondrial Q-cycle. J. Biol. Chem. 2011, 286, 31361-31372).

[7] = Conjugated autoxidizable triene (CAT) assay; details: oil-in-water microemulsion; n=3
From the text: as §2

[8] = cited from earlier work
[9] = 2, 20 and 60 μM, 1 or 2 h incubation

COc1cc(/C=C/C(=O)OCC[N+](C)(C)C)cc(OC)c1O [sinapine]
time after which fluorescence increased [1]: 10 to 15 min | share in the aqueous phase [2]: > 99% | partition in octan-1-ol [2]: < 0.2% | logD ([2]; pH 7): -3 | logP ([2]; pH 7): -3 | reduction of DHE fluorescence compared to control hearts [3]: 45% | level in cytosolic and mitochondrial fractions of the heart [4]: detected and quantified in both the cytosol and mitochondria | plasmatic level [4]: detected at all time points at a relatively stable level | ORAC value [5]: 2.28±0.25 mol of Trolox equivalent per mol of compound | level of the incubated compound in cytosol (cardiomyocytes; [9]): detected sinapine in a dose dependent manner | level of the incubated compound in mitochondria (cardiomyocytes; [9]): detected in a dose-dependent manner in mitochondria | share of sinapine entering the mitochondria that is hydrolyzed to sinapic acid (cardiomyocytes; after 1 or 2 h): approximately 25% | time of entry into cardiac cells (cardiomyocytes; no time-dependency between 1 and 2 h): within an hour | hydrolysis of sinapine in cytosol (sinapic acid not detected) (cardiomyocytes; sinapine incubation 1 or 2 h): no major sinapine hydrolysis | effect on antimycin A-induced increase in DHR123 fluorescence (mitochondrial ROS) ([6]; 10 μM antimycin A, 1 h pre-treatment): prevented by sinapine | effect on H2O2-induced increase in H2DCF-DA fluorescence (cytosolic ROS) ([6]; sinapine 6 and 60 μM): prevented the increase in H2DCF-DA | effect of pre-incubation on basal H2DCF-DA and DHR123 fluorescence [6]: no impact on the fluorescence level | dose dependence of the effect on H2O2-induced H2DCF-DA increase ([6]; sinapine 6 and 60 μM): dose-dependent

COc1cc(/C=C/C(=O)O)cc(OC)c1O [sinapic acid]
log P ([2]; octan-1-ol / aqueous solution at pH 7.0): −0.9 | share in the aqueous phase [2]: > 85% | ROS production (DHE) versus Ctrl ([3]; sinapic acid 60 μM, not significant (p=0.12)): −20% | plasma amount of sinapic acid relative to sinapine ([4]; 2 h period): about five times more sinapic acid than sinapine | level in cytosolic and mitochondrial fractions of the heart [4]: not found in any of the fractions | plasmatic level [4]: detected at all time points at a relatively stable level | CAT value [7]: 1.74±0.07 mol of Trolox equivalent per mol of compound | ORAC value [5]: 2.73±0.176 mol of Trolox equivalent per mol of compound | time of entry into cardiac cells (cardiomyocytes): within an hour | effect on H2O2-induced increase in H2DCF-DA fluorescence (cytosolic ROS) ([6]; sinapine 6 and 60 μM): prevented the increase in H2DCF-DA | effect of pre-incubation on basal H2DCF-DA and DHR123 fluorescence [6]: no impact on the fluorescence level

COC1=C(OC)C(=O)C(CCC[P+](c2ccccc2)(c2ccccc2)c2ccccc2)=C(C)C1=O [MitoQ3]
log D/log P (pH 7.0) [8]: 0.5

COC1=C(OC)C(=O)C(CCCCCCCCCC[P+](c2ccccc2)(c2ccccc2)c2ccccc2)=C(C)C1=O.CS(=O)(=O)[O-] [MitoQ10]
log D/log P (pH 7.0) [8]: 3.4

CC1(C)CC(NC(=O)C[P+](c2ccccc2)(c2ccccc2)c2ccccc2)CC(C)(C)N1[O] [MitoTEMPO]
log D (pH 7.0) ([2]; octan-1-ol / aqueous buffer, experimental): 0.0 | partitioning in both phases ([2]; octan-1-ol / aqueous phase, pH 7.0): 50/50 | partition in octan-1-ol [2]: 50% | reduction of DHE fluorescence compared to control hearts [3]: 24%

COC1=C(OC)C(=O)C(CCCCC[P+](c2ccccc2)(c2ccccc2)c2ccccc2)=C(C)C1=O [MitoQ5]
log D/log P (pH 7.0) [8]: 1.1
